Results on 15 molecules are retold here after BindingDB's records for doi:10.1016/j.ejmech.2019.05.051 (Zhejiang Academy of Medical Sciences, 2019).

The nature of the assay: Inhibition of rat brain cortex AChE using acetylthiocholine iodide as substrate incubated for 15 mins by spectrophotometry.
For orientation: IC50 means the concentration that gives 50% inhibition. High values mean lower potency, low ones higher potency. The molecule `CCN(C)C(=O)Oc1cc(C(C)N(C)C)cc2cccnc12` (stereo not given) registered an IC50 of 1.2 µM. This lies in the single-digit micromolar range.

`CCN(CC)C(=O)Oc1cc(C(C)N(C)C)cc2cccnc12` (stereo not given) yielded an IC50 of 13.6 µM.

`CC(c1cc(OC(=O)N2CCCCC2)c2ncccc2c1)N(C)C` (stereo not given) displayed an IC50 of 20.6 µM.

`CC(c1cc(OC(=O)N(C)C)c2ncccc2c1)N1CCOCC1` (stereo not given) came in with an IC50 of 69.9 µM.

For `CC(c1cc(OC(=O)N2CCCC2)c2ncccc2c1)N1CCOCC1` (stereo not given), the IC50 came to 48.6 µM.

In the case of `CC(c1cc(OC(=O)N2CCOCC2)c2ncccc2c1)N1CCOCC1` (stereo not given), it took 8.3 µM to reach half-maximal inhibition (IC50).

Regarding `CCN(C)C(=O)Oc1cc(C(C)N(CC)CC)cc2cccnc12` (stereo not given), inhibition was half-maximal at 41.2 µM (IC50).

As for `CCN(C)C(=O)Oc1cc(C(C)N2CCCCC2)cc2cccnc12` (stereo not given), the IC50 was determined as 29 µM.

Molecule `CCN(C)C(=O)Oc1cc(C(C)N2CCN(C)CC2)cc2cccnc12` (stereo not given) gave an IC50 of 54.7 µM.

In turn, `CCN(C)C(=O)Oc1cc(C(C)N2CCCC2)cc2cccnc12` (stereo not given) displayed an IC50 of 18.1 µM.

As to `CC(c1cc(OC(=O)N2CCCC2)c2ncccc2c1)N(C)C` (stereo not given), the midpoint of inhibition, the IC50, lay at 28.6 µM.

With `CC(c1cc(OC(=O)N(C)C)c2ncccc2c1)N(C)C` (stereo not given), the IC50 was 16.3 µM.

Take `CC(c1cc(OC(=O)N2CCOCC2)c2ncccc2c1)N(C)C` (stereo not given): inhibition was half-maximal at 8.8 µM (IC50).

With `CCN(C)C(=O)Oc1cc(C(C)N(C)CC)cc2cccnc12` (stereo not given), half-maximal inhibition (IC50) was put at 40.7 µM.

In turn, `CCN(C)C(=O)Oc1cccc([C@H](C)N(C)C)c1` [2,3-dihydroxybutanedioic acid; 3-[(1S)-1-(dimethylamino)ethyl]phenyl N-ethyl-N-methylcarbamate] returned an IC50 of 9 µM.
